Consider 1 compound from PMC8273887 (Journal of Medicinal Chemistry, 2021).

Series [1] can be described thus: Stability in simulated intestinal fluid (SIF). Particulars: pig, simulated intestinal fluid (SIF) with porcine pancreatin, pH 6.8, 15 μL of 1 mM peptide stock in 285 μL SIF, 37 °C, samples 0 min-24 h quenched with 5% aqueous TFA, RP-HPLC/LC-MS peak area as % of time 0, exponential one-phase decay fit, read-out: t1/2 in SIF. The class given is in vitro ADME. In short, it runs like this: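 Peptides incubated at 37 °C in SGF (pepsin, pH 1.3) or SIF (porcine pancreatin, pH 6.8), sampled from 0 min to 24 h. Remaining peptide quantified by RP-HPLC peak area as % of time 0, with t1/2 from one-phase exponential decay fit. Metabolites identified by LC-MS.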

For series [2], the target named is T1, LINGO2 (Homo sapiens, UniProt Q7L985).
T1 construct: expressed in transfected cells; host or cells: HEK-293, transient transfection by the calcium phosphate method
T1 sequence (Q7L985 28-606) 1: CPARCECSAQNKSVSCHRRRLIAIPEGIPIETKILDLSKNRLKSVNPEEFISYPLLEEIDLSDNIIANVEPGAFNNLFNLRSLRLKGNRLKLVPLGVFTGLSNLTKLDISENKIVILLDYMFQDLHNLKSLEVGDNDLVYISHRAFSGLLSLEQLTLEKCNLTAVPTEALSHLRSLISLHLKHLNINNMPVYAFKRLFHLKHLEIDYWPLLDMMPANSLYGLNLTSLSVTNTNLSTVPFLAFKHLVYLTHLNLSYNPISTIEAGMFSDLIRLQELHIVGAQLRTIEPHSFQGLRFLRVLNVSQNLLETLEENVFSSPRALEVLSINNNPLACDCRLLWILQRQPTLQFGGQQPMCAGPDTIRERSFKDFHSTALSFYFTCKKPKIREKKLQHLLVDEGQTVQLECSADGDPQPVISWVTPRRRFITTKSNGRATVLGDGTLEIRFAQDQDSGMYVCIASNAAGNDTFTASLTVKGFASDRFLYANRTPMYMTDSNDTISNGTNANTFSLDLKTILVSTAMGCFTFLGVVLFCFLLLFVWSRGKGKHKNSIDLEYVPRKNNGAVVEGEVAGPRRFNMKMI
T1 sequence (Q7L985 28-606) 2: T1 sequence (Q7L985 28-606) 1
As to the kind of experiment: BRET assay of LINGO2 dimerization in HEK-293 cells. Format: cell-based. The conditions noted are these: HEK-293 coexpressing LINGO2-YFP and LINGO2-Rluc; 0.1–10 μM peptide, 20 min incubation; coelenterazine 5 μM; n = 4. The text has this:
LINGO2 has also been put forward as a potential TFF3 receptor.[38] We thus evaluated whether TFF3(C^57Acm) or TFF3 homodimer could disturb LINGO2 dimerization via a bioluminescence resonance energy transfer (BRET) assay. This method allows the study of protein interactions using energy transfer between a light-emitting enzyme and a fluorescent acceptor protein.[65] LINGO2 fused with Renilla luciferase (Rluc; protein donor) or yellow fluorescent protein (YFP; protein acceptor) were co-expressed in HEK-293 cells and BRET signal detected after adding the luminescent substrate coelenterazine. […] We then evaluated whether the TFF3 constructs could promote changes of this basal BRET signal by inducing conformational change within the dimers and/or change the dimerization state of LINGO2.
HEK-293 cells were cultured with 10% FBS at 37 °C and 5% CO2 in DMEM for 72–96 h. […] Then, total luminescence was measured by following coelenterazine addition (final concentration 5 μM). BRET signal was measured in four repeats and calculated by determining the emission ratio at 530/480 nm on cells coexpressing donor and acceptor and by subtracting the emission background BRET signal ratio (530/480 nm) of cells expressing only donor protein, then multiplying by 1,000 to obtain results in millBRET units (mBU).
Background: Bioluminescence resonance energy transfer reports proximity on the nanometre scale.

Regarding `CC[C@H](C)[C@@H]1NC(=O)[C@H](CCCNC(=N)N)NC(=O)[C@H](CO)NC(=O)[C@H](CC(=O)O)NC(=O)[C@H](Cc2ccccc2)NC(=O)[C@@H]2CSSC[C@H](NC(=O)[C@H](CCC(N)=O)NC(=O)[C@H](CC(N)=O)NC(=O)[C@H](C)NC(=O)[C@H](CO)NC(=O)[C@H](CC(C)C)NC(=O)CNC(=O)[C@@H](NC(=O)[C@H](Cc3ccc(O)cc3)NC(=O)[C@H](CCC(=O)O)NC(=O)[C@@H](N)CCC(=O)O)C(C)C)C(=O)N[C@@H](C)C(=O)N[C@@H](C(C)C)C(=O)N3CCC[C@H]3C(=O)N[C@@H](C)C(=O)N[C@@H](CCCCN)C(=O)N[C@@H](CC(=O)O)C(=O)N[C@@H](CCCNC(=N)N)C(=O)N[C@@H](C(C)C)C(=O)N[C@@H](CC(=O)O)C(=O)N[C@H]3CSSC[C@H](NC(=O)CNC(=O)[C@H](CCCNC(=N)N)NC(=O)[C@H](CC(N)=O)NC(=O)[C@H](CC(N)=O)NC(=O)[C@H](CSSC[C@@H](C(=O)N[C@@H](Cc4ccccc4)C(=O)N[C@@H](CCCCN)C(=O)N4CCC[C@H]4C(=O)N[C@@H](CC(C)C)C(=O)N[C@@H](CCC(N)=O)C(=O)N[C@@H](CCC(=O)O)C(=O)N[C@@H](C)C(=O)N[C@@H](CCC(=O)O)C(=O)N[C@@H](CSCNC(C)=O)C(=O)N[C@H](C(=O)N[C@@H](Cc4ccccc4)C(=O)O)[C@@H](C)O)NC(=O)[C@H](Cc4c[nH]c5ccccc45)NC(=O)[C@@H]4CCCN4C(=O)[C@H](C(C)C)NC(=O)CNC(=O)[C@@H]4CCCN4C1=O)NC(=O)[C@H](CCC(=O)O)NC(=O)[C@H](CCCCN)NC(=O)[C@@H]1CCCN1C(=O)[C@H]([C@@H](C)O)NC(=O)[C@H](C(C)C)NC(=O)[C@H](Cc1c[nH]cn1)NC(=O)[C@@H]1CCCN1C(=O)[C@H](Cc1ccc(O)cc1)NC(=O)CNC3=O)C(=O)N2` [TFF3(C^57Acm)], the half-life at 50 μM in series [1] is below 5 min. In series [2], the “modification of LINGO2 BRET signal” value was “no statistically significant (p > 0.05) modification of BRET signal”.
